Laboratory results as given in US20230040770A1, “HETEROCYCLIC COMPOUND AND USE THEREOF” (TAKEDA PHARMACEUTICAL COMPANY LIMITED, priority 2019, published 2023).

Each molecule was assayed against T1, human orexin type 2 receptor (Homo sapiens, UniProt O43614) (assay: Measurement of orexin type 2 receptor agonist activity (calcium indicator fluorescence, CHO cells forcibly expressing human OX2 receptor)). Conditions: compound at 3 μM; 0% = DMSO, 100% = orexin A (human) 10 nM.
T1 construct: expressed in transfected cells
T1 sequence (O43614 1-444): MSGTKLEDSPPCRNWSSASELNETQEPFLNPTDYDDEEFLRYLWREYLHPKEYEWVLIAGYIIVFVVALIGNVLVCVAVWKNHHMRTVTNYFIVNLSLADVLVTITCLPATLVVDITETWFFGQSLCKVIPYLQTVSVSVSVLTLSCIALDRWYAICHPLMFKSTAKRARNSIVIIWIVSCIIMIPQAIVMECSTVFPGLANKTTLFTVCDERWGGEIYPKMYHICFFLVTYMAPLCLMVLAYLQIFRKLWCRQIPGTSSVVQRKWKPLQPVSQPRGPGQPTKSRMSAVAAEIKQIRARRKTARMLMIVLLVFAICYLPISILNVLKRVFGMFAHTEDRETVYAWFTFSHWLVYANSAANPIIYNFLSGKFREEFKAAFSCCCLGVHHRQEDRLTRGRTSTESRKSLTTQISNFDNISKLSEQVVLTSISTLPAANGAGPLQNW
Type: cell-based
Procedure, shortened: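 Agonist response normalised between vehicle (0%) and orexin A at 10 nM final (100%), from kinetic Fluo-4 calcium signals recorded for about 2 min after compound addition. Cells: stable human OX2R CHO clone, dye-loaded 30 min at 37 °C plus 30 min at room temperature.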

In order of falling “OX2R agonist activity (3 μM, %)” value:
1. Cc1cccc(-c2cccc(C[C@H]3[C@@H](NS(=O)(=O)C4CC4)[C@@H](F)CN3C(=O)N(C)C)c2F)c1 [Example 538, (2S,3R,4S)-3-[(cyclopropanesulfonyl)amino]-4-fluoro-2-[(2-fluoro-3′-methyl[1,1′-biphenyl]-3-yl)methyl]-N,N-dimethylpyrrolidine-1-carboxamide]  106%
2. CCS(=O)(=O)N[C@H]1[C@@H](F)CN(C(=O)C2CCO2)[C@H]1Cc1cccc(-c2cccc(C(F)F)c2)c1F (stereo partly drawn) [Example 535, N-[(2S,3R,4S)-2-{[3′-(difluoromethyl)-2-fluoro[1,1′-biphenyl]-3-yl]methyl}-4-fluoro-1-(oxetane-2-carbonyl)pyrrolidin-3-yl]ethanesulfonamide]  102%
3. Cc1cc(F)cc(-c2cccc(C[C@H]3[C@@H](NS(=O)(=O)C4CC4)C(F)(F)CN3C(=O)[C@H]3CCO3)c2F)c1 [Example 533, N-{(2S,3R)-2-[(2,3′-difluoro-5′-methyl[1,1′-biphenyl]-3-yl)methyl]-4,4-difluoro-1-[(2R)-oxetane-2-carbonyl]pyrrolidin-3-yl}cyclopropanesulfonamide]  101%
4. Cc1cccc(-c2cccc(C[C@H]3[C@@H](NS(=O)(=O)N(C)C)C(F)(F)CN3C(=O)[C@H]3CCO3)c2F)c1F [Example 539, N′-{(2S,3R)-2-[(2,2′-difluoro-3′-methyl[1,1′-biphenyl]-3-yl)methyl]-4,4-difluoro-1-[(2R)-oxetane-2-carbonyl]pyrrolidin-3-yl}-N,N-dimethylsulfuric diamide]  101%
5. Cc1cccc(-c2cccc(C[C@H]3[C@@H](NS(=O)(=O)C4CC4)[C@@H](F)CN3C(=O)C3(O)CCC3)c2F)c1 [Example 537, N-[(2S,3R,4S)-4-fluoro-2-[(2-fluoro-3′-methyl[1,1′-biphenyl]-3-yl)methyl]-1-(1-hydroxycyclobutane-1-carbonyl)pyrrolidin-3-yl]cyclopropanesulfonamide]  100%
6. Cc1cc(F)cc(-c2cccc(C[C@H]3[C@@H](NS(=O)(=O)N(C)C)C(F)(F)CN3C(=O)[C@H]3CCO3)c2F)c1 [Example 540, N′-{(2S,3R)-2-[(2,3′-difluoro-5′-methyl[1,1′-biphenyl]-3-yl)methyl]-4,4-difluoro-1-[(2R)-oxetane-2-carbonyl]pyrrolidin-3-yl}-N,N-dimethylsulfuric diamide]  100%
7. CN(C)S(=O)(=O)N[C@@H]1[C@H](Cc2cccc(-c3cccc(F)c3)c2F)N(C(=O)[C@H]2CCO2)CC1(F)F [Example 541, N′-{(2S,3R)-2-[(2,3′-difluoro[1,1′-biphenyl]-3-yl)methyl]-4,4-difluoro-1-[(2R)-oxetane-2-carbonyl]pyrrolidin-3-yl}-N,N-dimethylsulfuric diamide]  100%
8. Cc1cccc(-c2cccc(C[C@H]3[C@@H](NS(=O)(=O)C4CC4)[C@@H](F)CN3C(=O)N3CCC3)c2F)c1 [Example 543, N-{(2S,3R,4S)-1-(azetidine-1-carbonyl)-4-fluoro-2-[(2-fluoro-3′-methyl[1,1′-biphenyl]-3-yl)methyl]pyrrolidin-3-yl}cyclopropanesulfonamide]  99%
9. O=C(N1CCC1)N1CC(F)(F)[C@H](NS(=O)(=O)C2CC2)[C@@H]1Cc1cccc(-c2cccc(F)c2)c1F [Example 534, N-{(2S,3R)-1-(azetidine-1-carbonyl)-2-[(2,3′-difluoro[1,1′-biphenyl]-3-yl)methyl]-4,4-difluoropyrrolidin-3-yl}cyclopropanesulfonamide]  98%
10. CCS(=O)(=O)N[C@H]1[C@@H](F)CN(C(=O)C2(O)CCC2)[C@H]1Cc1cccc(-c2cccc(C)c2)c1F [Example 536, N-[(2S,3R,4S)-4-fluoro-2-[(2-fluoro-3′-methyl[1,1′-biphenyl]-3-yl)methyl]-1-(1-hydroxycyclobutane-1-carbonyl)pyrrolidin-3-yl]ethanesulfonamide]  98%
11. CN(C)S(=O)(=O)N[C@@H]1[C@H](Cc2cccc(-c3cccc(F)c3)c2F)N(C(=O)N2CCC2)CC1(F)F [Example 547, N′-{(2S,3R)-1-(azetidine-1-carbonyl)-2-[(2,3′-difluoro[1,1′-biphenyl]-3-yl)methyl]-4,4-difluoropyrrolidin-3-yl}-N,N-dimethylsulfuric diamide]  98%
12. CN(C)C(=O)N1CC(F)(F)[C@H](NS(=O)(=O)N(C)C)[C@@H]1Cc1cccc(-c2cc(F)cc(F)c2)c1F [Example 532, (2S,3R)-3-[(dimethylsulfamoyl)amino]-4,4-difluoro-N,N-dimethyl-2-[(2,3′,5′-trifluoro[1,1′-biphenyl]-3-yl)methyl]pyrrolidine-1-carboxamide]  96%
13. Cc1cc(F)cc(-c2cccc(C[C@H]3[C@@H](NS(=O)(=O)N(C)C)C(F)(F)CN3C(=O)N3CCC3)c2F)c1 [Example 546, N′-{(2S,3R)-1-(azetidine-1-carbonyl)-2-[(2,3′-difluoro-5′-methyl[1,1′-biphenyl]-3-yl)methyl]-4,4-difluoropyrrolidin-3-yl}-N,N-dimethylsulfuric diamide]  96%
14. Cc1cc(F)cc(-c2cccc(C[C@H]3[C@@H](NS(=O)(=O)C4CC4)C(F)(F)CN3C(=O)N3CCC3)c2F)c1 [Example 529, N-{(2S,3R)-1-(azetidine-1-carbonyl)-2-[(2,3′-difluroo-5′-methyl[1,1′-biphenyl]-3-yl)methyl]-4,4-difluoropyrrolidin-3-yl}cyclopropanesulfonamide]  95%
15. Cc1cccc(-c2cccc(C[C@H]3[C@@H](NS(=O)(=O)N(C)C)C(F)(F)CN3C(=O)N(C)C)c2F)c1F [Example 531, (2S,3R)-2-[(2,2′-difluoro-3′-methyl[1,1′-biphenyl]-3-yl)methyl]-3-[(dimethylsulfamoyl)amino]-4,4-difluoro-N,N-dimethylpyrrolidine-1-carboxamide]  95%
16. Cc1cccc(-c2cccc(C[C@H]3[C@@H](NS(=O)(=O)C4CC4)C(F)(F)CN3C(=O)[C@H]3CCO3)c2F)c1F [Example 530, N-{(2S,3R)-2-[(2,2′-difluoro-3′-methyl[1,1′-biphenyl]-3-yl)methyl]-4,4-difluoro-1-[(2R)-oxetane-2-carbonyl]pyrrolidin-3-yl}cyclopropanesulfonamide]  94%
17. CN(C)S(=O)(=O)N[C@@H]1[C@H](Cc2cccc(-c3cc(F)cc(F)c3)c2F)N(C(=O)N2CCC2)CC1(F)F [Example 548, N′-{(2S,3R)-1-(azetidine-1-carbonyl)-4,4-difluoro-2-[(2,3′,5′-trifluoro[1,1′-biphenyl]-3-yl)methyl]pyrrolidin-3-yl}-N,N-dimethylsulfuric diamide]  94%
18. CCS(=O)(=O)N[C@@H]1[C@H](Cc2cccc(-c3cccc(OC(F)F)c3)c2F)N(C(=O)C(C)C)CC1(F)F [Example 549, N-[(2S,3R)-2-{[3′-(difluoromethoxy)-2-fluoro[1,1′-biphenyl]-3-yl]methyl}-4,4-difluoro-1-(2-methylpropanoyl)pyrrolidin-3-yl]ethanesulfonamide]  94%
19. Cc1cccc(-c2cccc(C[C@H]3[C@@H](NS(=O)(=O)N(C)C)C(F)(F)CN3C(=O)N3CCC3)c2F)c1F [Example 545, N′-{(2S,3R)-1-(azetidine-1-carbonyl)-2-[(2,2′-difluoro-3′-methyl[1,1′-biphenyl]-3-yl)methyl]-4,4-difluoropyrrolidin-3-yl}-N,N-dimethylsulfuric diamide]  93%
20. CCS(=O)(=O)N[C@@H]1[C@H](Cc2cccc(-c3cccc(OC(F)F)c3)c2F)N(C(=O)C2CC2)CC1(F)F [Example 550, N-[(2S,3R)-1-(cyclopropanecarbonyl)-2-{[3′-(difluoromethoxy)-2-fluoro[1,1′-biphenyl]-3-yl]methyl}-4,4-difluoropyrrolidin-3-yl]ethanesulfonamide]  93%
21. CCS(=O)(=O)N[C@@H]1[C@H](Cc2cccc(-c3cccc(OC(F)F)c3)c2F)N(C(=O)C23CC(C2)C3)CC1(F)F [Example 551, N-[(2S,3R)-1-(bicyclo[1.1.1]pentane-1-carbonyl)-2-{[3′-(difluoromethxoy)-2-fluoro[1,1′-biphenyl]-3-yl]methyl}-4,4-difluoropyrrolidin-3-yl]ethanesulfonamide]  93%
22. O=C(N1CCC1)N1C[C@H](F)[C@H](NS(=O)(=O)C2CC2)[C@@H]1Cc1cccc(-c2cc(F)cc(F)c2)c1F [Example 544, N-{(2S,3R,4S)-1-(azetidine-1-carbonyl)-4-fluoro-2-[(2,3′,5′-trifluoro[1,1′-biphenyl]-3-yl)methyl]pyrrolidin-3-yl}cyclopropanesulfonamide]  90%
23. CN(C)C(=O)N1CC(F)(F)[C@H](NS(=O)(=O)N(C)C)[C@@H]1Cc1cccc(-c2cccc(F)c2)c1F [Example 528, (2S,3R)-2-[(2,3′-difluoro[1,1′-biphenyl]-3-yl)methyl]-3-[(dimethylsulfamoyl)amino]-4,4-difluoro-N,N-dimethylpyrrolidine-1-carboxamide]  83%
